Experimental data: US12606795B2 (Thankcome Biological Science and Technology (SuZhou) Co., …, priority 2023, dated 2026)

Test system: AOM/DSS-induced colorectal carcinoma mice
Assay: AOM/DSS-induced colorectal carcinoma mice
Type: in vivo, C57BL/6 mice
Settings: for colorectum weight/length (ratio): model group 4.34±0.35, normal 2.81±0.34
Experimental: 6-week-old SPF male C57BL/6 mice, purchased from the Chongqing Lepitt Biotechnology Co., Ltd. The mice were raised in a standardized laboratory with room temperature of 25° C.±2° C., relative humidity of 50%±5%, and 12 h of light/12 h of darkness. […] In experiments, mice were given free feeding and water. On the first day of experimental molding, the mice in the model group, the aspirin group, and the AKKP group were injected intraperitoneally with AOM at a dosage of 10 mg/kg, and were fed with 2.5% DSS aqueous solution at weeks 2, 5, and 8. The mice in the normal group and model group were intragastrically administrated with sterile saline; the mice in the aspirin group were intragastrically administrated with an aspirin solution at 67 mg/kg, and the mice in the AKKPL group and the AKKPH group were intragastrically administrated at dosages of 1×10^8 CFU/kg and 1×10^9 CFU/kg, respectively, for 10 consecutive weeks. In the experiments, diet, activity, vigor and hair conditions, and fecal properties of the mice in each group were observed. Each mouse was weighed per week and the body weights were recorded. After the experiments, blood was collected from eyeballs and the mice were sacrificed by removing their vertebrae. The mice were dissected to take out large intestine tissue, spleen tissue, liver tissue, and the kidney tissue for later testing.
After the mice were dissected, the large intestine tissue, the spleen tissue, the liver tissue, and the kidney tissue were taken out and weighed. An organ Index was calculated using a formula, while the colorectum length of the mouse was measured and the colorectal tumorigenesis number of the mouse was recorded. Organ index=organ weight (mg)/mouse body weight (g).
After being fixed in a tissue fixative for 24 h, the rectum of the mouse was transferred into 95% ethanol for dehydration, and then the dehydrated rectum was placed in xylene to replace alcohol in the tissue to make the rectum tissue transparent. Then, the treated rectum was embedded with paraffin. The embedded rectum was sectioned by a microtome, and then a tissue section was stained with H&E and fixed, obtaining a pathologic tissue section, with a thickness of 2 to 3 μm, of the rectum of the mouse, and the pathologic tissue section was observed under the upright microscope.
Whole blood was collected from the eyeballs, and centrifuged at 4000 r/min and 4° C. for 10 min to separate supernatant serum. According to the instruction of the ELISA kit, the levels of IL-1β, IL-6, IFN-γ, iNOS and NF-κB in the serum of the mouse were determined.
About 50 mg colon tissue was taken and cleaned with saline, and the cleaned colon tissue was placed in a homogenization tube containing 6 zirconia beads, and 500 μL TRIzol™ reagent was added to extract RNA in the tissue. The purity and concentration of RNA were determined using the micro-spectrophotometer. […] Then, after cDNA was generated by reverse transcription, a reaction system containing 1 μL cDNA was prepared. Other reagents include 10 μL qPCR SYBR Green Master Mix, […] sterile distilled water, 1 μL forward primer and 1 μL reverse primer. qRT-PCR amplification reaction conditions: 95° C., 10 s, 60° C., 30 s, 40 cycles; 95° C., 15 s, 60° C., 60 s, 95° C., 15 s. Taking Eef2 as an internal reference gene, the mRNA relative expression of each target gene was calculated according to formula 2^−ΔΔCt.

[1] = qRT-PCR, aspirin 67 mg/kg or AKKPH 1×10^9 CFU/kg, vs model group, P<0.05
[2] = qRT-PCR, vs model group, P<0.05

Substance: Akkermansia muciniphila [AKK PROBIO]
- colorectum weight/length (ratio) (AKKPH 1×10^9 CFU/kg intragastric 10 weeks): 2.97±0.18
- colorectum weight/length (ratio) (AKKPL 1×10^8 CFU/kg intragastric 10 weeks): 3.18±0.31
- body weight loss (AOM/DSS mice, intragastric 10 weeks, aspirin 67 mg/kg, AKKP 1×10^8 and 1×10^9 CFU/kg): alleviate the body weight loss in the mice to a certain extent
- content of IL-6 in serum (ELISA, vs model group): reduced
- content of IFN-γ in serum (ELISA, vs model group, P<0.05): reduced
- content of IL-1β in serum (ELISA, vs model group, P<0.05): lower than that in the model group
- content of NF-κB in serum (ELISA, vs model group, P<0.05): reduced
- content of iNOS in serum (ELISA, vs model group, P<0.05): reduced
- pathological morphology of rectum tissue (H&E) (aspirin, AKKPL and AKKPH groups): no obvious erosion found in the rectal mucosa
- kidney index / renal tissue (between the five groups, P>0.05): no significant difference
- mRNA relative expression of IκBβ in colon tissue [1]: significantly reduced
- mRNA relative expression of p50 in colon tissue [1]: significantly reduced
- mRNA relative expression of Bid in colon tissue [2]: significantly increased
- mRNA relative expression of Bim in colon tissue [2]: significantly increased
- mRNA relative expression of caspase-9 in colon tissue [2]: significantly increased
- mRNA relative expression of p52 in colon tissue [2]: significantly reduced
- mRNA relative expression of p65 in colon tissue [2]: significantly reduced
- colorectal tumorigenesis number (vs model group, P<0.05): significantly smaller
- liver weight (liver index) (vs model group, P<0.05): reduced
- spleen weight (spleen index) (vs model group, P<0.05): reduced
- colorectum length (vs model group, P<0.05, aspirin 67 mg/kg, AKKP 1×10^8 and 1×10^9 CFU/kg, 10 weeks): relatively long
